# Measurements published in ChEMBL document CHEMBL1201862, “PubChem BioAssay data set” (2004).
#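 These data come from cells grown in 96-well plates and exposed to compound for 48 hours at five concentrations. GI50 marks 50% less growth.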 Active and inactive are the calls of the source. No stated cut-off is given here; in the data, active = GI50 up to about 1.1 µM and inactive = higher.
# Legend:
# Assay in all cases: NCI anticancer screen, dose series, 48 h
# A549 = tested on: A549
# HCC 2998 = tested on: HCC 2998
# HOP-62 = tested on: HOP-62
# NCI-H226 = tested on: NCI-H226
# DU-145 = tested on: DU-145
# HCT-15 = tested on: HCT-15
# SF-268 = tested on: SF-268
# NCI-H23 = tested on: NCI-H23
# SK-MEL-5 = tested on: SK-MEL-5
# PC-3 = tested on: PC-3
# CCRF-CEM = tested on: CCRF-CEM
# HOP-92 = tested on: HOP-92
# TK-10 = tested on: TK-10
# Malme-3M = tested on: Malme-3M
# OVCAR-8 = tested on: OVCAR-8
# SF-295 = tested on: SF-295
# HCT-116 = tested on: HCT-116
# NCI-H522 = tested on: NCI-H522
# BT-549 = tested on: BT-549
# Hs-578T = tested on: Hs-578T
SMILES,GI50 (A549),GI50 (HCC 2998),GI50 (HOP-62),GI50 (NCI-H226),GI50 (DU-145),GI50 (HCT-15),GI50 (SF-268),GI50 (NCI-H23),GI50 (SK-MEL-5),GI50 (PC-3),GI50 (CCRF-CEM),GI50 (HOP-92),GI50 (TK-10),GI50 (Malme-3M),GI50 (OVCAR-8),GI50 (SF-295),GI50 (HCT-116),GI50 (NCI-H522),GI50 (BT-549),GI50 (Hs-578T)
CC(=O)CSCc1ccccn1,62.5 µM (inactive),39.9 µM (inactive),42.4 µM (inactive),19.9 µM (inactive),65.2 µM (inactive),86.5 µM,8.87 µM (inactive),62.2 µM (inactive),26 µM (inactive),33.7 µM (inactive),39.9 µM (inactive),38.6 µM (inactive),> 100 µM (inactive),4.72 µM (inactive),38.4 µM (inactive),80.9 µM (inactive),45.3 µM (inactive),6.9 µM (inactive),47.5 µM (inactive),2.69 µM (inactive)
CC(C)C(C/C=C1\CC(CO)(COC(=O)C(C)(C)C)OC1=O)C(C)C (stereo not given),4.42 µM (inactive),7.03 µM (inactive),3.11 µM (inactive),5.12 µM (inactive),4.65 µM (inactive),13.4 µM,13.2 µM (inactive),4.9 µM (inactive),3.72 µM (inactive),5.05 µM (inactive),10.6 µM (inactive),10.3 µM (inactive),7.23 µM (inactive),10.7 µM (inactive),14.8 µM (inactive),4.06 µM (inactive),10.5 µM (inactive),14.1 µM (inactive),11.5 µM (inactive),2.5 µM (inactive)
Cn1c(Sc2ccc(-c3cccnc3)n2C)ccc1-c1cccnc1,26.4 µM (inactive),20.2 µM (inactive),17.6 µM (inactive),24.5 µM (inactive),18.1 µM (inactive),16.8 µM,10.7 µM (inactive),16.7 µM (inactive),16.4 µM (inactive),15.5 µM (inactive),1.96 µM (inactive),12.9 µM (inactive),17.3 µM (inactive),11.1 µM (inactive),18.1 µM (inactive),16.2 µM (inactive),8.79 µM (inactive),10.3 µM (inactive),20.4 µM (inactive),3.7 µM (inactive)
N=C(N)SCc1ccc(Cl)c2ccccc12.O=[N+]([O-])c1c(O)c(Cl)cc(Cl)c1Cl,14.6 µM (inactive),2.33 µM (inactive),11.5 µM (inactive),12 µM (inactive),14 µM (inactive),14.3 µM,15.7 µM (inactive),12.9 µM (inactive),12.6 µM (inactive),11.9 µM (inactive),9.59 µM (inactive),5.89 µM (inactive),7.67 µM (inactive),9.1 µM (inactive),17.7 µM (inactive),11.6 µM (inactive),11.8 µM (inactive),4.56 µM (inactive),14.8 µM (inactive),17.9 µM (inactive)
C=C(C)c1nc(Oc2ccccc2)nc(Oc2ccccc2)n1,19.5 µM (inactive),3.99 µM (inactive),16.1 µM (inactive),19.9 µM (inactive),16.5 µM (inactive),2.81 µM,4.79 µM (inactive),6.64 µM (inactive),13.7 µM (inactive),14.6 µM (inactive),2.54 µM (inactive),4.93 µM (inactive),3.72 µM (inactive),13.9 µM (inactive),4.8 µM (inactive),14.9 µM (inactive),3.53 µM (inactive),1.16 µM (inactive),3.32 µM (inactive),4.49 µM (inactive)
Cc1cc(N(CCC#N)S(=O)(=O)c2ccccc2)ccc1/C=N/c1ccc(C(=O)O)cc1,31.6 µM (inactive),16.8 µM (inactive),31 µM (inactive),21.8 µM (inactive),> 100 µM (inactive),7.53 µM,> 41 µM (inactive),16.1 µM (inactive),13.8 µM (inactive),> 100 µM (inactive),6.4 µM (inactive),> 100 µM (inactive),8.73 µM (inactive),4.61 µM (inactive),7.71 µM (inactive),29.1 µM (inactive),7.87 µM (inactive),5.51 µM (inactive),> 100 µM (inactive),56 µM (inactive)
Fc1ccc(N2C(=S)SC(=N\c3ccccc3)/C2=N/c2ccccc2)cc1,> 79.8 µM (inactive),> 100 µM (inactive),> 75 µM (inactive),> 100 µM (inactive),> 100 µM (inactive),> 85.1 µM,> 100 µM (inactive),> 71.9 µM (inactive),41.3 µM (inactive),> 16.7 µM (inactive),25.9 µM (inactive),> 42.8 µM (inactive),> 100 µM (inactive),> 42.9 µM (inactive),> 100 µM (inactive),> 100 µM (inactive),17.5 µM (inactive),> 100 µM (inactive),> 100 µM (inactive),81.3 µM (inactive)
